Test results as given in patent US8436037B2, “Process for the production of amides” (Syngenta Limited, priority 2005, dated 2013).

Assays:
[1] = water solubility of crystal modifications; format: physicochemical; conditions: over relevant temperature ranges; compared with modification A
[2] = thermodynamic stability (DSC, solubility tests and other experiments); format: physicochemical; conditions: compared with modification A
Procedure: Characteristic for modification B is also the thermogram in DSC (differential scanning calorimetry, see FIG. 5). It has an endothermic peak in the range from 120° C. to 128° C. depending on purity. For example, crystal modification B in pure form has a peak temperature of 128° C. and an endothermic signal around 90 J/g. This thermogram is characteristically different from the thermogram of the modification A (see FIG. 6), which has an endothermic peak at about 112° C. and an endothermic signal of 76 J/g. The measurement was carried out on a Metier Toledo 820 DSC in a closed pan with a heating rate of 10 K/minute. The typical sample quantity is about 5 mg.

CC(C)C1C2CCC1c1c(NC(=O)c3cn(C)nc3C(F)F)cccc12 (stereo not drawn) [modification B, syn-3-difluoromethyl-1-methyl-1H-pyrazole-4-carboxylic acid (9-isopropyl-1,2,3,4-tetrahydro-1,4-methano-naphthalen-5-yl)-amide]
water solubility [1]: lower than the water solubility of modification A
thermodynamic stability [2]: substantially better thermodynamic stability than the modification A
